For one assay, the target named is T1, human PRMT1 (Homo sapiens, UniProt Q99873).
T1 construct: GST-tagged PRMT1; made in house; host or cells: High Five insect cells (baculovirus)
Put plainly: PRMT1 Biochemical Assay (3H-SAM Flashplate, peptide substrate). To be noted: single experiment or average of multiple experiments. The procedure, abridged:
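GST-tagged PRMT1 from baculovirus-infected cells, preincubated with compounds 30 min at room temperature in 20 mM Bicine pH 7.6, 1 mM TCEP, 0.005% BSG, 0.002% Tween 20. Reaction started with ³H-SAM plus biotinylated peptide, stopped with 300 µM cold SAM.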

A further assay deals with T2, human PRMT6 (Homo sapiens, UniProt Q96LA8).
T2 construct: Flag-PRMT6-His; made in house; host or cells: HEK 293F cells (BacMam baculovirus)
T2 sequence (Q96LA8 with tags, fused parts or gaps): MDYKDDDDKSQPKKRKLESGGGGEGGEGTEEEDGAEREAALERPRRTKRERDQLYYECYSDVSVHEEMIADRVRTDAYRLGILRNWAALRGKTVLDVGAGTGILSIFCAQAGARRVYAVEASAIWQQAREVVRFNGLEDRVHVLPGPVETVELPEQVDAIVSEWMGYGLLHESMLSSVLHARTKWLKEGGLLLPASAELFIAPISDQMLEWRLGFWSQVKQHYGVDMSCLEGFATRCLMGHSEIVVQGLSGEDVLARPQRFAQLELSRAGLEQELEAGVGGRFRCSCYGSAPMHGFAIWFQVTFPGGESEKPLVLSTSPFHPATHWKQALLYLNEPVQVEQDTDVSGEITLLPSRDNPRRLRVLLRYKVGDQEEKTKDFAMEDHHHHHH
Put plainly: PRMT6 Biochemical Assay (3H-SAM Flashplate, peptide substrate). To be noted: Biochemical IC50 PRMT6, single experiment or average of multiple experiments. The procedure, abridged:
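Flag-PRMT6-His, expressed in mammalian cells from a BacMam vector, was preincubated with compound for 30 min at room temperature in Bicine pH 7.6 buffer with TCEP, BSG and Tween 20. Reactions were started with ³H-SAM and a biotinylated histone H4 36-50 peptide, then stopped with cold SAM (400 uM final). Labeled peptide was captured on streptavidin Flashplates, counted, and fitted to a 3- or 4-parameter curve.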

T1 sequence (Q99873 with tags, fused parts or gaps): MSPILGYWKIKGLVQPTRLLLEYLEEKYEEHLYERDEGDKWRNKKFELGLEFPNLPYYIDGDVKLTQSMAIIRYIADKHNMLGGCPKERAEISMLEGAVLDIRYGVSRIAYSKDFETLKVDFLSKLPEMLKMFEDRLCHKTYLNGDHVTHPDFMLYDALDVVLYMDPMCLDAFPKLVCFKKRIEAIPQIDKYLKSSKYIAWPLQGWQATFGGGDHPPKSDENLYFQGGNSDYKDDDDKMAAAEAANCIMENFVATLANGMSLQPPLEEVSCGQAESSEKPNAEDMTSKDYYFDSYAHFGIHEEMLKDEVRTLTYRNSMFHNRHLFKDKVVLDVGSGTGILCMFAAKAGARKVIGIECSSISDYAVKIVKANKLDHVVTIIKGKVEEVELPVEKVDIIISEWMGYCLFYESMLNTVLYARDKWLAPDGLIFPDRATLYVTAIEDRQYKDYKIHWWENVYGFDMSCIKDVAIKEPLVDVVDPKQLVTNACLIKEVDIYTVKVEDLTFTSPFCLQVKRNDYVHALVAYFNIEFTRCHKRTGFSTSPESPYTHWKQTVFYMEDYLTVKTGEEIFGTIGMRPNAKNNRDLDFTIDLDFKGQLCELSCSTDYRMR

Broadly, the IC50 is the point on the concentration scale where inhibition reaches its midpoint. Regarding `COc1ccc(-c2n[nH]cc2CN(C)CCN)c(Cl)c1` [Compound 146], the IC50 on human PRMT1 came out at 46.3 nM; against human PRMT6 it was 12.5 nM.
With `CNCCN(C)Cc1c[nH]nc1-c1ccc(OCCCOC)cc1` [Compound 209], the results for the IC50 at human PRMT1 and against human PRMT6 were 5.29 nM and 4.05 nM, respectively.
For `CCN(C)C(=O)c1cccc(-c2n[nH]cc2CN(C)CCN)c1` [Compound 198], in that order: 2170 nM and 322 nM.
For `CNCCN(C)Cc1c[nH]nc1-c1ccc(C(F)(F)F)cc1` [Compound 174], in that order: 11.9 nM and 15 nM.
As for `CN(CCN)Cc1c[nH]nc1-c1ccc(Oc2ccccc2)c(F)c1` [Compound 224, N^1-((3-(3-fluoro-4-phenoxyphenyl)-1H-pyrazol-4-yl)methyl)-N^1-methylethane-1,2-diamine], the IC50 worked out at 2.51 nM against human PRMT1 and 1.98 nM against human PRMT6.
For `CNCCN(C)Cc1c[nH]nc1-c1ccc(Oc2ccccc2)c(C#N)c1` [Compound 221], in that order: 6.47 nM and 6.72 nM.
The matching figures for `CCC(=O)N1CCN(c2ccc(-c3n[nH]cc3CN(C)CCN)cc2)CC1` [Compound 189]: 475 nM and 29.5 nM.
For `COc1ccc(Cl)cc1-c1n[nH]cc1CN(C)CCN` [Compound 157], in that order: 1540 nM and 504 nM.
In the case of `COCCOc1ccc(-c2n[nH]cc2CN(C)CCN)cc1` [Compound 167], the figures for the IC50 against human PRMT1 and against human PRMT6 were 9.28 nM and 17.4 nM, respectively.
With `CCn1cc(CN(C)CCNC)c(-c2ccc(OC(C)C)cc2)n1` [Compound 213], the IC50 at human PRMT1 was 26.6 nM; against human PRMT6, 82.1 nM.
The matching figures for `CN(CCN)Cc1n[nH]cc1-c1ccc(C2CCOCC2)cc1` [Compound 145]: 20.1 nM and 60 nM.
For `CNCCN(C)Cc1cnn(C2CCOC2)c1-c1ccc(OC(C)C)cc1` (stereo not drawn) [Compound 216], in that order: 21.1 nM and 27.7 nM.
For `CCOc1ccc(-c2n[nH]cc2CN(C)CCN)cc1` [Compound 166], in that order: 7.27 nM and 15.6 nM.
Consider `CNCCN(C)Cc1c[nH]nc1-c1ccc(Cl)c(F)c1` [Compound 182], for which the IC50 on human PRMT1 stood at 4.75 nM; on human PRMT6, 5.48 nM.
For the compound `CC(C)Oc1ccc(-c2c[nH]nc2CN(C)CCN)cc1Cl` [Compound 211], the IC50 on human PRMT1 came to 6.08 nM; against human PRMT6, 20.5 nM.
Regarding `CN(CCN(C)C1CC1)Cc1c[nH]nc1-c1ccc(C#N)cc1` [Compound 184], the IC50 against human PRMT1 was 1600 nM; against human PRMT6 it was 2380 nM.
The matching figures for `CN(CCN1CCC1)Cc1c[nH]nc1-c1ccc(C#N)cc1` [Compound 185]: 1120 nM and 407 nM.
For `CN(CCN)Cc1c(-c2ccc(C#N)cc2)ncn1C` [Compound 222], in that order: 1260 nM and 1160 nM.
The matching figures for `CNCCN(C)Cc1c[nH]nc1-c1ccc(OC(C)C)c(F)c1` [Compound 181]: 4.96 nM and 17.3 nM.
In the case of `Cc1[nH]nc(-c2ccc(F)cc2)c1CN(C)CCN` [Compound 169], the values for the IC50 against human PRMT1 and against human PRMT6 were 307 nM and 85 nM, respectively.
As to `COc1ccc(F)cc1-c1n[nH]cc1CN(C)CCN` [Compound 160], the IC50 against human PRMT1 amounted to 167 nM; against human PRMT6, 191 nM.
